Results published in ChEMBL document CHEMBL1149805, “Antibacterial activity of a novel series of 3-bromo-4-(1H-3-indolyl)-2,5-dihydro-1H-2,5-pyrroledione derivatives--an extended structure-activity relationship study” (Eur J Med Chem, 2008).
Converted amounts (≈) assume the structure as drawn. The source made the active and inactive calls. No rule for the calls is given here.

Tests used:
[1] = Partition coefficient, log P of the compound; format: physicochemical; settings: octanol/water
Candida albicans = experiment: Antibacterial activity against Candida albicans after 24 hrs by broth microdilution method; format: functional, organism-based
Escherichia coli = experiment: Antibacterial activity against Escherichia coli after 24 hrs by broth microdilution method; format: functional, organism-based
Staphylococcus aureus = experiment: Antibacterial activity against Staphylococcus aureus 134/93 after 24 hrs by broth microdilution method; format: functional; settings: for MIC: Staphylococcus aureus, 134/93, 24 h
[2] = system: Mycolicibacterium smegmatis; experiment: Antibacterial activity against Mycobacterium smegmatis SG987 after 24 hrs by broth microdilution method; format: functional; settings: for MIC: Mycolicibacterium smegmatis, SG987, 24 h

SMILES	logP [1]	MIC (Staphylococcus aureus) [µM]	MIC [2] [µM]	Activity (Candida albicans)	Activity (Escherichia coli)	-logMIC (Staphylococcus aureus)	-logMIC [2]
Cc1ccccc1NC(=O)CCCc1[nH]c2ccccc2c1C1=C(Br)C(=O)NC1=O	2.56	0.32 (≈ 0.149 µg/mL)	17.1 (≈ 7.97 µg/mL)	inactive	inactive	6.5	4.8
Cc1cccc(NC(=O)CCCc2[nH]c3ccccc3c2C2=C(Br)C(=O)NC2=O)c1	2.56	0.79 (≈ 0.368 µg/mL)	27 (≈ 12.6 µg/mL)	inactive	inactive	6.1	4.6
CCCCCc1cccc2c(C3=C(Br)C(=O)NC3=O)c(-c3ccccc3)[nH]c12	4.11	0.5 (≈ 0.219 µg/mL)	14.3 (≈ 6.25 µg/mL)	inactive	inactive	6.3	4.9
COc1cccc(-c2[nH]c3ccc(C)cc3c2C2=C(Br)C(=O)NC2=O)c1	3.12	0.2 (≈ 0.0823 µg/mL)	7.94 (≈ 3.27 µg/mL)	inactive	inactive	6.6	5.1
CCCCc1cccc2c(C3=C(Br)C(=O)NC3=O)c(-c3ccccc3)[nH]c12	3.88	0.25 (≈ 0.106 µg/mL)	14.7 (≈ 6.22 µg/mL)	inactive	inactive	6.6	4.8
Cc1ccc(NC(=O)CCCc2[nH]c3ccccc3c2C2=C(Br)C(=O)NC2=O)cc1	2.56	1.58 (≈ 0.737 µg/mL)	27 (≈ 12.6 µg/mL)	inactive	inactive	5.8	4.6
CCCCCCCCCCOc1ccc(-c2[nH]c3ccccc3c2C2=C(Br)C(=O)NC2=O)cc1	5.94	–	100 (≈ 52.3 µg/mL)	inactive	inactive	–	4
CCc1cccc2c(C3=C(Br)C(=O)NC3=O)c(-c3ccccc3)[nH]c12	3.42	2.51 (≈ 0.992 µg/mL)	31.7 (≈ 12.5 µg/mL)	inactive	inactive	5.7	4.5
O=C(CCCc1[nH]c2ccccc2c1C1=C(Br)C(=O)NC1=O)Nc1ccccc1	2.56	1.7 (≈ 0.769 µg/mL)	55 (≈ 24.9 µg/mL)	inactive	inactive	5.8	4.3
CCCCCCOc1ccc2[nH]c(-c3ccccc3)c(C3=C(Br)C(=O)NC3=O)c2c1	4.08	–	–	inactive	inactive	–	–
CCCCCCc1ccc2[nH]c(-c3ccc(OC)cc3)c(C3=C(Br)C(=O)NC3=O)c2c1	–	–	–	inactive	inactive	–	–
O=C(CCCCCCc1[nH]c2ccccc2c1C1=C(Br)C(=O)NC1=O)Nc1ccccc1	2.85	0.1 (≈ 0.0494 µg/mL)	12.6 (≈ 6.23 µg/mL)	inactive	inactive	7	4.9
O=C(CCCCc1[nH]c2ccccc2c1C1=C(Br)C(=O)NC1=O)Nc1ccccc1	2.56	1.7 (≈ 0.793 µg/mL)	26 (≈ 12.1 µg/mL)	inactive	inactive	5.8	4.6
CCCCCOc1ccc2[nH]c(-c3ccccc3)c(C3=C(Br)C(=O)NC3=O)c2c1	3.75	27 (≈ 12.2 µg/mL)	27.5 (≈ 12.5 µg/mL)	inactive	inactive	4.6	4.6
O=C1NC(=O)C(c2c(-c3ccc(OCc4cccc5ccccc45)cc3)[nH]c3ccccc23)=C1Br	3.76	1.5 (≈ 0.785 µg/mL)	3.16 (≈ 1.65 µg/mL)	inactive	inactive	5.8	5.5
CCCOc1ccc2[nH]c(-c3ccccc3)c(C3=C(Br)C(=O)NC3=O)c2c1	3.16	0.95 (≈ 0.404 µg/mL)	58.8 (≈ 25 µg/mL)	inactive	inactive	6	4.2
COc1cccc(-c2[nH]c3ccc(OC)cc3c2C2=C(Br)C(=O)NC2=O)c1	2.79	1.9 (≈ 0.812 µg/mL)	15.8 (≈ 6.77 µg/mL)	inactive	inactive	5.7	4.8
O=C(O)c1cn(C2CC2)c2cc(N3CCNCC3)c(F)cc2c1=O [CIPROFLOXACIN]	–	38.1 (≈ 12.6 µg/mL)	1.2 (≈ 0.398 µg/mL)	–	–	4.4	5.9

Continued, in another order:

logP [1]	MIC (Staphylococcus aureus) [µM]	MIC [2] [µM]	SMILES	Activity (Candida albicans)	Activity (Escherichia coli)	-logMIC (Staphylococcus aureus)	-logMIC [2]
3.81	0.25 (≈ 0.113 µg/mL)	–	CCCCc1cccc2c(C3=C(Br)C(=O)NC3=O)c(-c3ccc(OC)cc3)[nH]c12	inactive	inactive	6.6	–
4.27	0.4 (≈ 0.193 µg/mL)	–	CCCCCCc1cccc2c(C3=C(Br)C(=O)NC3=O)c(-c3ccc(OC)cc3)[nH]c12	inactive	inactive	6.4	–
2.85	0.12 (≈ 0.0494 µg/mL)	7.6 (≈ 3.13 µg/mL)	COc1ccc(-c2[nH]c3ccc(C)cc3c2C2=C(Br)C(=O)NC2=O)cc1	inactive	inactive	6.9	5.1
3.43	0.5 (≈ 0.205 µg/mL)	3.8 (≈ 1.56 µg/mL)	CCCc1ccc2[nH]c(-c3ccccc3)c(C3=C(Br)C(=O)NC3=O)c2c1	inactive	inactive	6.3	5.4
2.77	2 (≈ 0.883 µg/mL)	14.1 (≈ 6.22 µg/mL)	CCOc1ccc2[nH]c(-c3ccc(OC)cc3)c(C3=C(Br)C(=O)NC3=O)c2c1	inactive	inactive	5.7	4.8
2.48	1 (≈ 0.397 µg/mL)	31.5 (≈ 12.5 µg/mL)	COc1ccc2[nH]c(-c3ccccc3)c(C3=C(Br)C(=O)NC3=O)c2c1	inactive	inactive	6	4.5
3.35	0.5 (≈ 0.213 µg/mL)	3.98 (≈ 1.69 µg/mL)	CCc1ccc2[nH]c(-c3cccc(OC)c3)c(C3=C(Br)C(=O)NC3=O)c2c1	inactive	inactive	6.3	5.4
2.97	3.5 (≈ 1.54 µg/mL)	6.31 (≈ 2.78 µg/mL)	CCOc1ccc2[nH]c(-c3cccc(OC)c3)c(C3=C(Br)C(=O)NC3=O)c2c1	inactive	inactive	5.5	5.2
4.2	0.88 (≈ 0.399 µg/mL)	126 (≈ 57.1 µg/mL)	CCCCCOc1ccc(-c2[nH]c3ccccc3c2C2=C(Br)C(=O)NC2=O)cc1	inactive	inactive	6.1	3.9
3.42	0.11 (≈ 0.0483 µg/mL)	28.4 (≈ 12.5 µg/mL)	CCCCOc1ccc2[nH]c(-c3ccccc3)c(C3=C(Br)C(=O)NC3=O)c2c1	inactive	inactive	6.9	4.5
3.74	0.24 (≈ 0.102 µg/mL)	1.9 (≈ 0.804 µg/mL)	CCCCc1ccc2[nH]c(-c3ccccc3)c(C3=C(Br)C(=O)NC3=O)c2c1	inactive	inactive	6.6	5.7
3.45	0.45 (≈ 0.198 µg/mL)	1.8 (≈ 0.791 µg/mL)	CCCc1ccc2[nH]c(-c3ccc(OC)cc3)c(C3=C(Br)C(=O)NC3=O)c2c1	inactive	inactive	6.3	5.7
4.1	0.85 (≈ 0.397 µg/mL)	3.3 (≈ 1.54 µg/mL)	CCCCCc1ccc2[nH]c(-c3ccc(OC)cc3)c(C3=C(Br)C(=O)NC3=O)c2c1	inactive	inactive	6.1	5.5
4.39	–	–	CCCCCCc1ccc2[nH]c(-c3ccccc3)c(C3=C(Br)C(=O)NC3=O)c2c1	inactive	inactive	–	–
3.83	0.44 (≈ 0.199 µg/mL)	3.4 (≈ 1.54 µg/mL)	CCCCc1ccc2[nH]c(-c3ccc(OC)cc3)c(C3=C(Br)C(=O)NC3=O)c2c1	inactive	inactive	6.4	5.5
3.35	0.5 (≈ 0.213 µg/mL)	29.4 (≈ 12.5 µg/mL)	CCc1cccc2c(C3=C(Br)C(=O)NC3=O)c(-c3ccc(OC)cc3)[nH]c12	inactive	inactive	6.3	4.5
3.87	0.45 (≈ 0.198 µg/mL)	15.8 (≈ 6.96 µg/mL)	CCCCOc1ccc(-c2[nH]c3ccccc3c2C2=C(Br)C(=O)NC2=O)cc1	inactive	inactive	6.3	4.8
3.12	0.44 (≈ 0.2 µg/mL)	–	CCCOc1ccc2[nH]c(-c3ccc(OC)cc3)c(C3=C(Br)C(=O)NC3=O)c2c1	inactive	inactive	6.4	–
3.43	0.1 (≈ 0.0469 µg/mL)	–	CCCCOc1ccc2[nH]c(-c3ccc(OC)cc3)c(C3=C(Br)C(=O)NC3=O)c2c1	inactive	inactive	7	–
4.1	–	–	CCCCCCOc1ccc2[nH]c(-c3ccc(OC)cc3)c(C3=C(Br)C(=O)NC3=O)c2c1	inactive	inactive	–	–
3.77	–	–	CCCCCOc1ccc2[nH]c(-c3ccc(OC)cc3)c(C3=C(Br)C(=O)NC3=O)c2c1	inactive	inactive	–	–
